Source: ChEMBL document CHEMBL2346657, “Synthesis of novel 2-amino-4-(5'-substituted 2'-phenyl-1H-indol-3'-yl)-6-aryl-4H-pyran-3-carbonitrile derivatives as antimicrobial and antioxidant agents” (2013)
The source made the active and inactive calls.

Tests used:
Type in all cases: functional
[1] = Antioxidant activity assessed as metal chelating activity by measuring inhibition of ferrozine-Fe2+ complex formation at 25 to 100 ug/ml
[2] = tested on: Radical scavenging activity; test: Antioxidant activity assessed as DPPH radical scavenging activity at 100 ug/ml
[3] = tested on: Aspergillus flavus; test: Antimicrobial activity against Aspergillus flavus MTCC 1973 at 500 ug/ml after 72 hrs by cup plate method; details: MTCC 1973, 72 h, read-out: IZ
[4] = tested on: Aspergillus flavus; test: Antimicrobial activity against Aspergillus flavus MTCC 1973 at 750 ug/ml after 72 hrs by cup plate method; details: MTCC 1973, 72 h, read-out: IZ
[5] = tested on: Aspergillus flavus; test: Antimicrobial activity against Aspergillus flavus MTCC 1973 at 1000 ug/ml after 72 hrs by cup plate method; details: MTCC 1973, 72 h, read-out: IZ
[6] = tested on: Aspergillus terreus; test: Antimicrobial activity against Aspergillus terreus MTCC 1782 at 500 ug/ml after 72 hrs by cup plate method; details: MTCC 1782, 72 h, read-out: IZ
[7] = tested on: Aspergillus terreus; test: Antimicrobial activity against Aspergillus terreus MTCC 1782 at 750 ug/ml after 72 hrs by cup plate method; details: MTCC 1782, 72 h, read-out: IZ
[8] = tested on: Aspergillus terreus; test: Antimicrobial activity against Aspergillus terreus MTCC 1782 at 1000 ug/ml after 72 hrs by cup plate method; details: MTCC 1782, 72 h, read-out: IZ
[9] = tested on: Aspergillus oryzae; test: Antimicrobial activity against Aspergillus oryzae MTCC 3567 at 500 ug/ml after 72 hrs by cup plate method; details: MTCC 3567, 72 h, read-out: IZ
[10] = tested on: Aspergillus oryzae; test: Antimicrobial activity against Aspergillus oryzae MTCC 3567 at 750 ug/ml after 72 hrs by cup plate method; details: MTCC 3567, 72 h, read-out: IZ
[11] = tested on: Aspergillus oryzae; test: Antimicrobial activity against Aspergillus oryzae MTCC 3567 at 1000 ug/ml after 72 hrs by cup plate method; details: MTCC 3567, 72 h, read-out: IZ
[12] = tested on: Aspergillus niger; test: Antimicrobial activity against Aspergillus niger MTCC 281 at 500 ug/ml after 72 hrs by cup plate method; details: MTCC 281, 72 h, read-out: IZ
[13] = tested on: Aspergillus niger; test: Antimicrobial activity against Aspergillus niger MTCC 281 at 750 ug/ml after 72 hrs by cup plate method; details: MTCC 281, 72 h, read-out: IZ
[14] = tested on: Aspergillus niger; test: Antimicrobial activity against Aspergillus niger MTCC 281 at 1000 ug/ml after 72 hrs by cup plate method; details: MTCC 281, 72 h, read-out: IZ
[15] = tested on: Pseudomonas aeruginosa; test: Antimicrobial activity against Pseudomonas aeruginosa MTCC 1688 at 500 ug/ml after 24 hrs by cup plate method; details: MTCC 1688, 24 h, read-out: IZ
[16] = tested on: Pseudomonas aeruginosa; test: Antimicrobial activity against Pseudomonas aeruginosa MTCC 1688 at 750 ug/ml after 24 hrs by cup plate method; details: MTCC 1688, 24 h, read-out: IZ
[17] = tested on: Pseudomonas aeruginosa; test: Antimicrobial activity against Pseudomonas aeruginosa MTCC 1688 at 1000 ug/ml after 24 hrs by cup plate method; details: MTCC 1688, 24 h, read-out: IZ
[18] = tested on: Klebsiella pneumoniae; test: Antimicrobial activity against Klebsiella pneumoniae NCTC 13368 at 500 ug/ml after 24 hrs by cup plate method; details: NCTC 13368, 24 h, read-out: IZ
[19] = tested on: Klebsiella pneumoniae; test: Antimicrobial activity against Klebsiella pneumoniae NCTC 13368 at 750 ug/ml after 24 hrs by cup plate method; details: NCTC 13368, 24 h, read-out: IZ
[20] = tested on: Klebsiella pneumoniae; test: Antimicrobial activity against Klebsiella pneumoniae NCTC 13368 at 1000 ug/ml after 24 hrs by cup plate method; details: NCTC 13368, 24 h, read-out: IZ
[21] = tested on: Staphylococcus aureus; test: Antimicrobial activity against Staphylococcus aureus ATCC 29513 at 500 ug/ml after 24 hrs by cup plate method; details: ATCC 29513, 24 h, read-out: IZ
[22] = tested on: Staphylococcus aureus; test: Antimicrobial activity against Staphylococcus aureus ATCC 29513 at 750 ug/ml after 24 hrs by cup plate method; details: ATCC 29513, 24 h, read-out: IZ
[23] = tested on: Staphylococcus aureus; test: Antimicrobial activity against Staphylococcus aureus ATCC 29513 at 1000 ug/ml after 24 hrs by cup plate method; details: ATCC 29513, 24 h, read-out: IZ
[24] = tested on: Escherichia coli; test: Antimicrobial activity against Escherichia coli MTCC 723 at 500 ug/ml after 24 hrs by cup plate method; details: MTCC 723, 24 h, read-out: IZ
[25] = tested on: Escherichia coli; test: Antimicrobial activity against Escherichia coli MTCC 723 at 750 ug/ml after 24 hrs by cup plate method; details: MTCC 723, 24 h, read-out: IZ
[26] = tested on: Escherichia coli; test: Antimicrobial activity against Escherichia coli MTCC 723 at 1000 ug/ml after 24 hrs by cup plate method; details: MTCC 723, 24 h, read-out: IZ

Row | Compound | Activity [1] | zone of inhibition at 500 µg/mL [3] [mm] | zone of inhibition at 750 µg/mL [4] [mm] | zone of inhibition at 1000 µg/mL [5] [mm] | zone of inhibition at 500 µg/mL [9] [mm] | zone of inhibition at 750 µg/mL [10] [mm] | zone of inhibition at 1000 µg/mL [11] [mm] | zone of inhibition at 500 µg/mL [12] [mm] | zone of inhibition at 750 µg/mL [13] [mm] | zone of inhibition at 500 µg/mL [15] [mm] | zone of inhibition at 750 µg/mL [16] [mm] | zone of inhibition at 1000 µg/mL [17] [mm] | zone of inhibition at 500 µg/mL [18] [mm] | zone of inhibition at 750 µg/mL [19] [mm] | zone of inhibition at 1000 µg/mL [20] [mm] | zone of inhibition at 500 µg/mL [21] [mm] | zone of inhibition at 750 µg/mL [22] [mm] | zone of inhibition at 1000 µg/mL [23] [mm] | zone of inhibition at 500 µg/mL [24] [mm] | zone of inhibition at 750 µg/mL [25] [mm] | also measured
1 | Cc1ccc2[nH]c(-c3ccccc3)c(C3C=C(c4ccc(Cl)cc4)Oc4[nH]nc(N)c43)c2c1 (stereo not given) | Active | 5 | 5 | 2 | 8 | 7 | 7 | 5 | 3 | 6 | 6 | 5 | 12 | 12 | 12 | 2 | 0 | 0 | 9 | 8 | Activity [2]: Active; zone of inhibition at 500 µg/mL [6]: 10 mm; zone of inhibition at 750 µg/mL [7]: 10 mm; zone of inhibition at 1000 µg/mL [8]: 10 mm; zone of inhibition at 1000 µg/mL [14]: 2 mm; zone of inhibition at 1000 µg/mL [26]: 8 mm
2 | N#CC1=C(N)OC(c2ccccc2)=CC1c1c(-c2ccccc2)[nH]c2ccccc12 (stereo not given) | Active | 10 | 10 | 10 | 9 | 9 | 5 | 6 | 5 | 9 | 9 | 9 | 13 | 13 | 13 | 10 | 10 | 10 | 10 | 8 | Activity [2]: Active; zone of inhibition at 500 µg/mL [6]: 9 mm; zone of inhibition at 750 µg/mL [7]: 5 mm; zone of inhibition at 1000 µg/mL [8]: 3 mm; zone of inhibition at 1000 µg/mL [14]: 10 mm; zone of inhibition at 1000 µg/mL [26]: 8 mm
3 | Cc1ccc(C2=CC(c3c(-c4ccccc4)[nH]c4ccc(C)cc34)c3c(N)n[nH]c3O2)cc1 (stereo not given) | Active | 4 | 4 | 3 | 10 | 9 | 9 | 9 | 9 | 8 | 4 | 4 | 11 | 10 | 10 | 7 | 5 | 5 | 8 | 9 | Activity [2]: Active; zone of inhibition at 500 µg/mL [6]: 0 mm; zone of inhibition at 750 µg/mL [7]: 0 mm; zone of inhibition at 1000 µg/mL [8]: 0 mm; zone of inhibition at 1000 µg/mL [26]: 10 mm
4 | N#CC1=C(N)OC(c2ccc(Cl)cc2)=CC1c1c(-c2ccccc2)[nH]c2ccc(Cl)cc12 (stereo not given) | Active | 12 | 12 | 13 | 10 | 10 | 9 | 10 | 10 | 10 | 10 | 10 | 10 | 10 | 10 | 13 | 13 | 13 | 13 | 13 | Activity [2]: Active; zone of inhibition at 1000 µg/mL [14]: 10 mm; zone of inhibition at 1000 µg/mL [26]: 14 mm
5 | Nc1nc(=S)[nH]c2c1C(c1c(-c3ccccc3)[nH]c3ccc(Cl)cc13)C=C(c1ccccc1)O2 (stereo not given) | Active | 8 | 8 | 8 | 10 | 10 | 0 | 5 | 5 | 6 | 5 | 5 | 10 | 10 | 10 | 9 | 9 | 9 | 10 | 8 | zone of inhibition at 500 µg/mL [6]: 9 mm; zone of inhibition at 750 µg/mL [7]: 8 mm; zone of inhibition at 1000 µg/mL [8]: 8 mm; zone of inhibition at 1000 µg/mL [14]: 10 mm; zone of inhibition at 1000 µg/mL [26]: 8 mm
6 | Nc1nc(=S)[nH]c2c1C(c1c(-c3ccccc3)[nH]c3ccccc13)C=C(c1ccc(Cl)cc1)O2 (stereo not given) | Active | 12 | 12 | 5 | 9 | 8 | 8 | 3 | 3 | 10 | 10 | 10 | 8 | 8 | 5 | 10 | 10 | 11 | 10 | 10 | zone of inhibition at 500 µg/mL [6]: 8 mm; zone of inhibition at 750 µg/mL [7]: 5 mm; zone of inhibition at 1000 µg/mL [8]: 5 mm; zone of inhibition at 1000 µg/mL [14]: 5 mm; zone of inhibition at 1000 µg/mL [26]: 10 mm
